Results on one molecule are retold here after US10098372B2, “Whitening composition and the use thereof” (INFINITUS (CHINA) COMPANY LTD, priority 2015, dated 2018).

The target in assay [1] is T1, intracellular tyrosinase in melanoma cells from B16 mice (Mus musculus, UniProt P11344).
T1 construct: B16 melanin cells were adjusted with DMEM cell culture medium; endogenous in cells; host or cells: B16 mouse melanoma cells
T1 sequence (P11344 19-533): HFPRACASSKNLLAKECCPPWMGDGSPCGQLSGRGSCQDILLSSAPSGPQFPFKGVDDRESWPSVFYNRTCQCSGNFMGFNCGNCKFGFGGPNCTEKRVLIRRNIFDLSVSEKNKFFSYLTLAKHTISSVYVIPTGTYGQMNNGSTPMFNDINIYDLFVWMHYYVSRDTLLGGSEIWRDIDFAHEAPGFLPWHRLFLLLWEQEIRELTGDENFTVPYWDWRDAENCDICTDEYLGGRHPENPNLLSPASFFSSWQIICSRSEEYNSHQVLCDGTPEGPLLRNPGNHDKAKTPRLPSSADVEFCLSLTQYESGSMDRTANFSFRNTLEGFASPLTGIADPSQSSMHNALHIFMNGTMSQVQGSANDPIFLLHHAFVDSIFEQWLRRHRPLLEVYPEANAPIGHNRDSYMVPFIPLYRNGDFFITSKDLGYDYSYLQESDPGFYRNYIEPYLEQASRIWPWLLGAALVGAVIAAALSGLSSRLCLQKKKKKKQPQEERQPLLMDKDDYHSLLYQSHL
The experiment in a line: Effect on intracellular tyrosinase activity in melanoma cells from B16 mice. It counts as cell-based. The settings on record: 3 days, n = 4, read-out: Inhibitory rate for tyrosinase activity. The method, then: The experiments were: B16 melanin cells were adjusted with DMEM cell culture medium containing 10% fetal bovine serum, 100 U/mL penicillin and 100 U/mL streptomycin to reach a density of 1×10^5/mL, and were seeded into 6-well cell culture plates (3 mL per well). After cultured at 37° C., 5% CO2 for 24 h, the test sample (Example 2) was added. After 3 days, the supernatant was discarded, and the cells were washed with PBS for twice. After each well was added 180 μL PBS solution containing 1% (v/v) Triton X-100, the cells were subjected to ultrasonication under ice bath, then each well was added 20 μL 10 mmol/L of L-DOPA, incubated at 37° C. for 60 min. A 1500 r/min centrifugation was conducted for 5 min. 100 μL was respectively taken and transferred to a 96-well cell culture plate, and tested for absorbance at 492 nm via a microplate reader to calculate the inhibitory rate for intracellular tyrosinase activity. The control wells were added with the same volume amount of PBS as that of the sample. The positive control employs arbutin, at an effect concentration of 200 μM. Inhibition rate=(1−A/B)×100%
wherein A is the mean absorbance of the wells containing drug (i.e., sample wells or positive control wells), B is the mean absorbance of the control wells.

In assay [2] the test system is melanoma cells from B16 mice. The experiment in a line: Effect on melanin content (melanin synthesis) in melanoma cells from B16 mice. The settings on record: Mus musculus, 72 h, 3 days, n = 4, read-out: The inhibitory rate for melanin synthesis. It counts as cell-based. The method, then: The experiments were: melanoma cells from B16 mice (purchased from Shanghai Fuxiang Biotechnology Co., Ltd.) were adjusted with DMEM cell culture medium containing 10% fetal bovine serum, 100 U/mL penicillin and 100 U/mL streptomycin to reach a density of 1×10^5/mL, and were seeded into 6-well cell culture plates (3 mL per well). After cultured at 37° C., 5% CO2 for 24 h, the test sample (Example 2) was added. After 3 days, the supernatant was discarded, and the cells were washed with PBS, then added with trypsin to degest the cells for 3 min (0.5 mL per well). Afterwards, 2 mL cell culture medium was added to terminate the digestion reaction, and cells of each group were counted. After centrifugation, the supernatant was discarded, and 0.5 mL of 1 mol/L NaOH solution was added. After vibrated for 1 h, a 1500 r/min centrifugation was conducted for 5 min. 200 μL was respectively taken and transferred to a 96-well cell culture plate, and tested for absorbance at 450 nm via a microplate reader to calculate the inhibitory rate for melanin synthesis. In the experiment, the control wells were added with the same volume amount of PBS as that of the sample. […]
A is the absorbance of the wells containing drug (i.e., sample wells or positive control wells), B is the number of cells in the wells containing drug, C the absorbance of the control wells, D is the number of cells in control wells.

`OC[C@H]1O[C@@H](Oc2ccc(O)cc2)[C@H](O)[C@@H](O)[C@@H]1O` [Arbutin]: the inhibition at 400 µM in assay [1] worked out at 49 ± 9.44%. In addition, the inhibition at 200 µM in assay [2] amounted to 46.7 ± 10%.
